Source: US5354862A, “Preparation and the use of halopropargylated cyclic quaternary ammonium compounds as antimicrobial agents” (Rohm and Haas Company, priority 1993, dated 1994)
Converted amounts (≈) assume the structure as drawn. Read-outs that look alike come from different tables or passages of the source.

Key:
Staphylococcus aureus = assay: Broth two-fold serial dilution MIC test; format: cell-based, Staphylococcus aureus (ATCC 6538)
Summary of the method: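 Broth two-fold serial dilution from 500 ppm down to 0.25 ppm, compound delivered from acetone/methanol/water stock, inoculated with standardized cell suspension and incubated at an organism-appropriate temperature. MIC is the lowest concentration giving complete growth inhibition.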

Aspergillus niger = assay: Broth two-fold serial dilution MIC test; format: cell-based, Aspergillus niger (ATCC 6275)
Summary of the method: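 Two-fold broth serial dilution from 500 ppm down to 0.25 ppm, compound stock in acetone/methanol/water 5:3:2. Vessels inoculated with standardized spore suspension harvested from agar slants, incubated at a species-appropriate temperature, then scored for growth/no growth. MIC is the lowest concentration giving complete growth inhibition.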

Proteus mirabilis = assay: MIC test, side-by-side comparison; format: cell-based; details: Table 4 side-by-side, P. mirabilis; for MIC: Proteus mirabilis
Excerpt: (§1) A minimum inhibitory concentration (MIC) value is obtained using a broth, two-fold serial dilution test performed as follows: A stock solution or dispersion of the test compound, typically at a concentration of 1%, is made in a 5:3:2 solvent solution of acetone. methanol, and water. A volume of the stock solution is dispensed into culture media to give an initial starting test concentration of 500 ppm compound.
(§2) When the test is ready to be done, each vessel in the dilution series, except the first vessel, contains an equal volume of compound free broth. The first vessel contains twice the volume of broth with the starting concentration of test compound. One half of the broth from the first vessel is transferred to the second vessel- After being mixed, one half the resulting volume is removed from the second vessel and transferred to the third vessel. The entire cycle is repeated sufficiently to give a series of concentrations amounting to 500, 250, 125, 63, 31, 16, 8, and 4, 2, 1, 0.5, 0.25 ppm respectively.
(§3) Each vessel is then inoculated with a cell suspension of the appropriate test organism. Bacteria are grown in broth, fungi on agar slants for a time and at a temperature appropriate to the species being tested, and algae are a mixture of green algae and blue-green bacteria grown in a nutrient media. At the end of the growth period, in the case of bacteria, the broth is vortexed to disperse the cells.
(§4) In the case of fungi, the spores are harvested by pipetting water onto the slant and dislodging the spores with a sterile loop. The cell/spore suspension is standardized by controlling incubation time, temperature, and the volume of the diluent. The suspension is then used to inoculate the vessels containing the broth compound.
(§5) The vessels are then incubated at the appropriate temperature. After the incubation, the vessels are examined for growth/no growth. The minimum inhibitory concentration (MIC) is defined as the lowest concentration of compound that results in complete inhibition of growth of the test organism.
(§6) These five compounds were tested side-by-side against six organisms, Pseudomonas aeruginosa (P. aeruginosa), Klebsiella pneurnoniae (K. pneumoniae), Enterobacter aerogenes (E. aerogenes), Proteus mirabilis (P. mirabilis), Staphylococcus aureus (S. aureus), and Aspergillus niger (A. niger). The MIC tests were performed as in example 6.

Enterobacter aerogenes = assay: MIC test, side-by-side comparison; format: cell-based; details: Table 4 side-by-side, E. Aerogenes; for MIC: Klebsiella aerogenes
Excerpt: as §1, §2, §3, §4, §5, §6

Klebsiella pneurnoniae = assay: MIC test, side-by-side comparison; format: cell-based; details: for MIC: read-out: MIC Values
Excerpt: as §1, §2, §3, §4, §5, §6

Pseudomonas aeruginosa = assay: Broth two-fold serial dilution MIC test; format: cell-based, Pseudomonas aeruginosa (ATCC 15442)
Summary of the method: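 Broth two-fold serial dilution MIC (500 to 0.25 ppm) was run against Pseudomonas aeruginosa, with compound from 1% stock in acetone/methanol/water 5:3:2. Vessels inoculated with standardized broth-grown cells were incubated, then scored for growth. MIC is the lowest concentration giving complete growth inhibition.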

Escherichia coli = assay: Broth two-fold serial dilution MIC test; format: cell-based, Escherichia coli (ATCC 11229); details: Table 2, Ecol
Summary of the method: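 Broth two-fold serial dilutions ran from 500 down to 0.25 ppm, prepared from a stock in acetone/methanol/water (5:3:2). Each tube received a standardized bacterial suspension and was incubated at a temperature suited to the species. MIC is the lowest concentration giving complete growth inhibition.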

[1] = Staphylococcus aureus, Table 4 side-by-side, S. aureus, read-out: MIC Values
[2] = Aspergillus niger, Table 4 side-by-side, A. niger, read-out: MIC Values
[3] = Pseudomonas aeruginosa, Table 4 side-by-side, P. aeruginosa, read-out: MIC Values
[4] = Staphylococcus aureus, Table 2, Saur, M9G media, read-out: MIC
[5] = Staphylococcus aureus, Table 2, Saur, TSB media, read-out: MIC
[6] = Aspergillus niger, Table 2, Anig, TSB media, read-out: MIC
[7] = Pseudomonas aeruginosa, Table 2, Psae, M9G media, read-out: MIC
[8] = Pseudomonas aeruginosa, Table 2, Psae, TSB media, read-out: MIC

Row | SMILES | MIC (Escherichia coli; M9G media) | MIC (Escherichia coli; TSB media) | MIC (Staphylococcus aureus; [1]) | MIC (Aspergillus niger; [2]) | MIC (Proteus mirabilis) | MIC (Enterobacter aerogenes) | MIC (Klebsiella pneurnoniae) | MIC (Pseudomonas aeruginosa; [3]) | MIC (Staphylococcus aureus; Table 2, Saur, M9G media) | MIC (Staphylococcus aureus; Table 2, Saur, TSB media) | MIC (Aspergillus niger; Table 2, Anig, TSB media) | MIC (Pseudomonas aeruginosa; Table 2, Psae, M9G media) | MIC (Pseudomonas aeruginosa; Table 2, Psae, TSB media) | further results
1 | IC#CCN1CCOCC1 [Compound J2, N-(3-iodo-2-propynyl)-morpholine, reference compound] |  |  | 250 µg/mL (≈ 996 µM) | 8 µg/mL (≈ 31.9 µM) | 500 µg/mL (≈ 1990 µM) | 250 µg/mL (≈ 996 µM) | 500 µg/mL (≈ 1990 µM) | > 500 µg/mL |  |  |  |  |  | 
2 | CCCCCCCCCCCCCC[N+]1(CC#CI)CCCCC1 [Compound 25, 1-(tetradecyl)-1-(3-iodopropargyl)-piperidinium 4-methylbenzenesulfonate] | 2 ppm | 16 ppm | 0.5 µg/mL | 8 µg/mL | 4 µg/mL | 1 µg/mL | 4 µg/mL | 8 µg/mL | 0.25 ppm | 0.25 ppm | 8 ppm | 8 ppm | 2 ppm | 
3 | IC#CCN1CCCCC1 [Compound J1, N-(3-iodo-2-propynyl)-piperidine, reference compound] |  |  | 125 µg/mL (≈ 502 µM) | 16 µg/mL (≈ 64.2 µM) | 125 µg/mL (≈ 502 µM) | 32 µg/mL (≈ 128 µM) | 125 µg/mL (≈ 502 µM) | > 500 µg/mL |  |  |  |  |  | 
4 | CCCCCCCCCCCCCC[N+]1(CC#CI)CCOCC1 [Compound 42, 4-tetradecyl-4-(3-iodopropargyl)-morpholinium methanesulfonate] | < 0.25 ppm | < 0.25 ppm |  |  |  |  |  |  | < 0.25 ppm | 0.5 ppm | 1 ppm | 1 ppm | 4 ppm | MIC Values (Staphylococcus aureus; Table 4 side-by-side, S. aureus): 1 ppm; MIC Values (Aspergillus niger; Table 4 side-by-side, A. niger): 8 ppm; MIC Values (Proteus mirabilis): 4 ppm; MIC Values (Enterobacter aerogenes): 1 ppm; MIC Values (Klebsiella pneurnoniae; Table 4 side-by-side, K. Pneumoniae): 4 ppm; MIC Values (Pseudomonas aeruginosa; Table 4 side-by-side, P. aeruginosa): 16 ppm
5 | CCCCCCCCCCCCCC[N+]1(CC#CI)CCOCC1 [Compound 41, 4-tetradecyl-4-(3-iodoprolyargyl)-morpholinium benzenesulfonate] | < 0.25 ppm | < 0.25 ppm | 0.5 µg/mL | 8 µg/mL | 4 µg/mL | 2 µg/mL | 4 µg/mL | 8 µg/mL | < 0.25 ppm | 0.5 ppm | 2 ppm | 2 ppm | 4 ppm | 
6 | CCCCCCCCCCCCCC[N+]1(CC#CI)CCOCC1 [Compound 86, 4-tetradecyl-4-(3-iodopropargyl)-morpholinium n-butylsulfonate] | 2 ppm | 8 ppm |  |  |  |  |  |  | 0.5 ppm | 1 ppm | 8 ppm | 8 ppm | 32 ppm | 
7 | CCCCCCCC[N+]1(CC#CI)CCCC1 [Compound 12, 1-octyl-1-(3-iodopropargyl)-pyrrolidinium 4-methylbenzenesulfonate] |  |  |  |  |  |  |  |  |  |  |  |  |  | MIC (Escherichia coli; Escherichia coli, M9G media, read-out: MIC): 32 µg/mL; MIC (Escherichia coli; Escherichia coli, TSB media, read-out: MIC): 63 µg/mL; MIC (Staphylococcus aureus; [4]): 2 µg/mL; MIC (Staphylococcus aureus; [5]): 16 µg/mL; MIC (Aspergillus niger; [6]): 16 µg/mL; MIC (Pseudomonas aeruginosa; [7]): 500 µg/mL; MIC (Pseudomonas aeruginosa; [8]): > 500 µg/mL

The next lines start with results.

Row | MIC (Escherichia coli; M9G media) | MIC (Escherichia coli; TSB media) | SMILES | MIC (Staphylococcus aureus; [1]) | MIC (Aspergillus niger; [2]) | MIC (Proteus mirabilis) | MIC (Enterobacter aerogenes) | MIC (Klebsiella pneurnoniae) | MIC (Pseudomonas aeruginosa; [3]) | MIC (Staphylococcus aureus; Table 2, Saur, M9G media) | MIC (Staphylococcus aureus; Table 2, Saur, TSB media) | MIC (Aspergillus niger; Table 2, Anig, TSB media) | MIC (Pseudomonas aeruginosa; Table 2, Psae, M9G media) | MIC (Pseudomonas aeruginosa; Table 2, Psae, TSB media) | further results
8 | 500 ppm | 250 ppm | CCCC[N+]1(CC#CI)CCCC1 [Compound 9, 1-butyl-1-(3-iodopropargyl)-pyrrolidinium 4-methylbenzenesulfonate] |  |  |  |  |  |  |  |  |  |  |  | MIC (Staphylococcus aureus; [4]): 250 µg/mL; MIC (Staphylococcus aureus; [5]): 250 µg/mL; MIC (Aspergillus niger; [6]): 500 µg/mL; MIC (Pseudomonas aeruginosa; [7]): 500 µg/mL; MIC (Pseudomonas aeruginosa; [8]): > 500 µg/mL
9 | 2 ppm | 8 ppm | CCCCCCCCCCCCOC(=O)C[N+]1(CC#CI)CCCC1 [Compound 75, 1-(dodecyloxycarbonyl)methyl-1-(3-iodopropargyl)-pyrrolidinium methanesulfonate] |  |  |  |  |  |  | 0.25 ppm | 2 ppm | 8 ppm | 32 ppm | 125 ppm | 
10 | 2 ppm | 8 ppm | CCCCCCCCCCCCOC(=O)C[N+]1(CC#CI)CCOCC1 [Compound 76, 4-(dodecyloxycarbonyl)methyl-4-(3-iodopropargyl)-morpholinium methanesulfonate] |  |  |  |  |  |  | 0.25 ppm | 2 ppm | 32 ppm | 64 ppm | 125 ppm | 
11 | 1 ppm | 8 ppm | CCCCCCCCCCCCCCC[N+]1(CC#CI)CCCC1 [Compound 38, 1-pentadecyl-1-(3-iodopropargyl)-pyrrolidinium methanesulfonate] |  |  |  |  |  |  | < 0.25 ppm | < 0.25 ppm | 0.5 ppm | 32 ppm | 63 ppm | 
12 | 1 ppm | 2 ppm | CCCCCCCCCCCCCCCC[N+]1(CC#CI)CCOCC1 [Compound 49, 4-hexadecyl-4-(3-iodopropargyl)-morpholinium 4-methylbenzenesulfonate] |  |  |  |  |  |  | < 0.25 ppm | 0.5 ppm | 1 ppm | 8 ppm | 8 ppm | 
